Patent publication US4356186A, “Acetic acid derivatives and composition containing the same” (priority 1980, dated 1982)
Read-outs that look alike come from different tables or passages of the source.

Key:
[1] = system: carrageenin-induced hind paw edema; test: Anti-inflammatory activity (carrageenin-induced hind paw edema in rats); assay type: in vivo, Male Wistar rats; conditions: for inhibition in vivo at 2 mg/kg / inhibition in vivo at 5 mg/kg / inhibition in vivo at 0.2 mg/kg / inhibition in vivo at 0.4 mg/kg / inhibition in vivo at 0.8 mg/kg / inhibition in vivo at 1.6 mg/kg / inhibition in vivo at 3.2 mg/kg / inhibition in vivo at 1 mg/kg / inhibition in vivo at 4 mg/kg / inhibition in vivo at 8 mg/kg: Rattus norvegicus, po; for inhibition in vivo at 0.2 mg/kg: 0.2 mg/kg p.o.; for inhibition in vivo at 0.4 mg/kg: 0.4 mg/kg p.o.; for inhibition in vivo at 0.8 mg/kg: 0.8 mg/kg p.o.; for inhibition in vivo at 1.6 mg/kg: 1.6 mg/kg p.o.; for inhibition in vivo at 3.2 mg/kg: 3.2 mg/kg p.o.; for inhibition in vivo at 1 mg/kg: 1 mg/kg p.o.; for inhibition in vivo at 4 mg/kg: 4 mg/kg p.o.; for inhibition in vivo at 8 mg/kg: 8 mg/kg p.o.
Procedure: Anti-inflammatory activity (carrageenin-induced hind paw edema in rats)
The test was carried out in a similar manner as disclosed in Proc. Soc. Exptl.
Male Wistar rats, weighing 100-300 g, were used. A 1% aqueous carrageenin solution (0.1 ml) was administered subcutaneously into the hind foot pad of rats. Two and three hours after the carrageenin injection, the paw volume was measured and the swelling rate was calculated based on the paw volume before the carrageenin injection. The inhibitory rate was determined as compared with the average swelling rate of the control group to which only vehicle was administered. The test compounds were administered orally one hour before the carrageenin injection.

stomach ulcer = test: Gastrointestinal ulcerogenicity; assay type: in vivo, Male Wistar rats; set-up: key to Average score of stomach ulcer: ulcer score 1 to 4, 4 = most severe ulcer; conditions: for Number of rats having a score of stomach ulcer of 2 or more/total number of rats used / Average score of stomach ulcer: after 6 hours; for Average score of stomach ulcer: score 1 to 4
Procedure: Gastrointestinal ulcerogenicity
The test was carried out in a similar manner as disclosed in Arzneim. Forsch., 19, 36 (1969).
Male Wistar rats, weighing 130-180 g, were used. After the rats were fasted for 24 hours, the test compound was orally administered one time. After 6 hours, the rats were killed and the stomach was removed. […] The degree of stomach ulcer was scored from 1 to 4, wherein 4 is the most severe ulcer. In Table 2, there are shown the average score of stomach ulcer in each dose and also the ratio of the number of rats having a score of stomach ulcer of 2 or more to total number of rats used.

Acute lethal toxicity = assay type: in vivo; conditions: rat, in vivo; single oral administration, mortality on the 7th day, Litchfield and Wilcoxon
Procedure: (§1) The mortality was observed on the 7th day after single oral administration of test compounds in male Wistar rats, and the LD50 was calculated according to the method of Litchfield and Wilcoxon.

male Wistar rats = test: Acute lethal toxicity; assay type: in vivo; conditions: from LD50, single oral administration
Procedure: as §1

[2] = 2 h, 2 mg/kg p.o., two hours, read-out: Inhibitory rate, two hours after the carrageenin injection
[3] = 2 h, 5 mg/kg p.o., two hours, read-out: Inhibitory rate, two hours after the carrageenin injection
[4] = 3 h, 2 mg/kg p.o., three hours, read-out: Inhibitory rate, three hours after the carrageenin injection
[5] = 3 h, 5 mg/kg p.o., three hours, read-out: Inhibitory rate, three hours after the carrageenin injection
[6] = 2 h, two hours, read-out: Inhibitory rate, two hours after the carrageenin injection
[7] = 3 h, three hours, read-out: Inhibitory rate, three hours after the carrageenin injection
[8] = 2 h, read-out: Inhibitory rate, two hours after the carrageenin injection
[9] = 3 h, read-out: Inhibitory rate, three hours after the carrageenin injection

Row | SMILES | inhibition in vivo at 2 mg/kg [1, 2] [%] | inhibition in vivo at 5 mg/kg [1, 3] [%] | inhibition in vivo at 2 mg/kg [1, 4] [%] | inhibition in vivo at 5 mg/kg [1, 5] [%] | Number of rats having a score of stomach ulcer of 2 or more/total number of rats used (stomach ulcer; 32 mg/kg p.o.) | Average score of stomach ulcer (stomach ulcer; 32 mg/kg p.o.) | Number of rats having a score of stomach ulcer of 2 or more/total number of rats used (stomach ulcer; 64 mg/kg p.o.) | Average score of stomach ulcer (stomach ulcer; 64 mg/kg p.o.) | Number of rats having a score of stomach ulcer of 2 or more/total number of rats used (stomach ulcer; 16 mg/kg p.o.) | Average score of stomach ulcer (stomach ulcer; 16 mg/kg p.o.) | Average score of stomach ulcer (stomach ulcer; 8 mg/kg p.o.) | inhibition in vivo at 1 mg/kg [1, 6] [%] | inhibition in vivo at 4 mg/kg [1, 6] [%] | inhibition in vivo at 1 mg/kg [1, 7] [%] | inhibition in vivo at 4 mg/kg [1, 7] [%] | also measured
1 | CC(C(=O)OCCc1ccccc1)c1ccc2c(c1)SCC1CCCCC1C2=O (centres unmarked) [L, Phenethyl 2-(6,6a,7,8,9,10,10a,11-octahydro-11-oxodibenzo[b,e]thiepin-3-yl)propionate] | 20.7 | 44.8 | 24.8 | 39.1 | 1/9 | 0.56 | 0/6 | 0.67 | – | – | – | – | – | – | – | gastrointestinal ulcerogenicity compared with the known aspirin (stomach ulcer; in words, from Table 2): far less gastrointestinal ulcerogenicity than the known aspirin; LD50 at 168 h (Acute lethal toxicity): 230 mg/kg; toxicity relative to that of indomethacin (male Wistar rats): about 1/12
2 | CC(C(=O)O)c1ccc2c(c1)SCC1CCCCC1C2=O (centres unmarked) [F, 2-(6,6a,7,8,9,10,10a,11-Octahydro-11-oxodibenzo[b,e]thiepin-3-yl)propionicacid-A] | – | – | – | – | 2/6 | 1.00 | 6/9 | 1.67 | 2/6 | 1.00 | – | – | – | – | – | inhibition in vivo at 0.2 mg/kg [1, 6]: 8.6%; inhibition in vivo at 0.4 mg/kg [1, 6]: 14.9%; inhibition in vivo at 0.8 mg/kg [1, 6]: 20.5%; inhibition in vivo at 1.6 mg/kg [1, 6]: 28.4%; inhibition in vivo at 3.2 mg/kg [1, 6]: 36.4%; inhibition in vivo at 0.2 mg/kg [1, 7]: 6.7%; inhibition in vivo at 0.4 mg/kg [1, 7]: 11.6%; inhibition in vivo at 0.8 mg/kg [1, 7]: 12.6%; inhibition in vivo at 1.6 mg/kg [1, 7]: 20.3%; inhibition in vivo at 3.2 mg/kg [1, 7]: 30.6%; anti-inflammatory activity compared with the known indomethacin ([1]; in words, from Table 1): comparable or superior to that of the known indomethacin
3 | COc1ccc2c(c1)c(CC(=O)O)c(C)n2C(=O)c1ccc(Cl)cc1 [Compound 1, Indomethacin, reference compound] | – | – | – | – | – | – | – | – | – | 2.56 | 1.78 | – | – | – | – | inhibition in vivo at 2 mg/kg [1, 8]: 20.5%; inhibition in vivo at 5 mg/kg [1, 8]: 42.4%; inhibition in vivo at 2 mg/kg [1, 9]: 19.3%; inhibition in vivo at 5 mg/kg [1, 9]: 36.3%; Average score of stomach ulcer (stomach ulcer; 4 mg/kg p.o.): 0.50
4 | CC(C(=O)O)c1ccc2c(c1)SCC1CCCCC1C2=O (centres unmarked) [H, Calcium 2-(6,6a,7,8,9,10,10a,11-octahydro-11-oxodibenzo[b,e]thiepin-3-yl)propionate] | – | – | – | – | 2/3 | 1.33 | – | – | 1/3 | 1.00 | – | 31.4 | 39.5 | 26.2 | 35.7 | –
5 | CC(C(N)=O)c1ccc2c(c1)SCC1CCCCC1C2=O (single isomer, unassigned) [R, 2-(6,6a,7,8,9,10,10a,11-Octahydro-11-oxodibenzo[b,e]thiepin-3-yl)propionamide-A] | 30.7 | – | 27.6 | – | 3/3 | 2.33 | – | – | 4/6 | 1.67 | 0.00 | 29.3 | 38.4 | 24.7 | 37.7 | inhibition in vivo at 8 mg/kg [1, 6]: 43.6%; inhibition in vivo at 8 mg/kg [1, 7]: 36%; Number of rats having a score of stomach ulcer of 2 or more/total number of rats used (stomach ulcer; 8 mg/kg p.o.): 0/3
6 | CC(C(=O)OCc1ccccn1)c1ccc2c(c1)SCC1CCCCC1C2=O (centres unmarked) [O, 2-Pyridylmethyl 2-(6,6a,7,8,9,10,10a,11-octahydro-11-oxodibenzo[b,e]thiepin-3-yl)propionate] | 31.4 | 30.8 | 28.8 | 30.6 | 2/6 | 0.67 | 4/6 | 1.83 | – | – | – | – | – | – | – | –
